# Reference: publication PMC12434667 (Journal of Medicinal Chemistry, 2025)
# Values joined by “and” are separate entries in the source; they are usually repeats but may differ in a detail not shown here. Identical values can stand only once.
# Tests used:
# Plasma protein binding = format: in vitro ADME; details: mouse
# human PBMC cells = experiment: Tandem mass tag deep proteome profiling; format: cell-based; details: 800 nM, 8 h, over 8000 proteins
# [1] = Plasma PK in HCC1569 xenograft model; format: in vivo; details: mouse HCC1569 xenograft; for AUC0–24h free: mouse PPB 98.02%
# CDK9 = CDK9 (Homo sapiens, UniProt P50750); experiment: 24-hr AlphaLISA of CDK9 degradation in TOV21G cells; format: cell-based
# HCC1569 tumor xenograft = HCC1569 tumor xenograft efficacy; format: in vivo, mouse; details: 28 days; for day 28 %dTV (mean ± SEM): HCC1569 xenograft mice
# CDK1 = CDK1 (Homo sapiens, UniProt P06493); experiment: 24-hr AlphaLISA of CDK1 degradation in TOV21G cells; format: cell-based; details: vs CDK2 degradation
# CDK6 = CDK6 (Homo sapiens, UniProt Q00534); experiment: 24-hr western blot of CDK6 degradation in TOV21G cells; format: cell-based; details: read-out: TOV21G CDK6 DC50
# CDK4 = CDK4 (Homo sapiens, UniProt P11802); experiment: 24-hr western blot of CDK4 degradation in TOV21G cells; format: cell-based; details: read-out: TOV21G CDK4 DC50
# Dog PK = format: in vivo
# Monkey PK = format: in vivo
# Rat PK = format: in vivo; details: plasma, po, 10 mg/kg
# pRB S807/811 = experiment: 24-hr AlphaLISA of pRB inhibition in MKN1 cells; format: cell-based; details: Homo sapiens, MKN-1, 24 h
# pRB = experiment: Tumor AlphaLISA; format: in vivo, mouse; details: HCC1569 xenograft, sustained
# CDK9, sequence (P50750 whole entry): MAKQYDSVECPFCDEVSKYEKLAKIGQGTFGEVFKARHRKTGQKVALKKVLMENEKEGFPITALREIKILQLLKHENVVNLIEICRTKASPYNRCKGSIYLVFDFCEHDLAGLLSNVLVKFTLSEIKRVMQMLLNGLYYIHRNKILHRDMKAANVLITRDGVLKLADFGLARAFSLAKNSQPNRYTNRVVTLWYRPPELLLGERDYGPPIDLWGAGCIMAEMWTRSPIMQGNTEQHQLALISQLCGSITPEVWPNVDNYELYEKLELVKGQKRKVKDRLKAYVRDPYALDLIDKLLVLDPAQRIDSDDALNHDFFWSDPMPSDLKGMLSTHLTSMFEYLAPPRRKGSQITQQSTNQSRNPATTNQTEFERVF
# CDK6, sequence (Q00534 whole entry): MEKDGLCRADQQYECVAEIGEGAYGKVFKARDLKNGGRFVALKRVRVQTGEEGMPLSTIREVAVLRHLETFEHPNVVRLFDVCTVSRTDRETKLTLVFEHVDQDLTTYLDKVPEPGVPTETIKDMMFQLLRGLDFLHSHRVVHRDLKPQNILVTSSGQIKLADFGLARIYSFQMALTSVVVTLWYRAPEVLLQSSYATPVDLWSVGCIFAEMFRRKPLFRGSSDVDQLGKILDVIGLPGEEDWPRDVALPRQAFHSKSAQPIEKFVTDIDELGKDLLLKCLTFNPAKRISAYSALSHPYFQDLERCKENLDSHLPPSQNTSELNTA
# CDK1, sequence (P06493 whole entry): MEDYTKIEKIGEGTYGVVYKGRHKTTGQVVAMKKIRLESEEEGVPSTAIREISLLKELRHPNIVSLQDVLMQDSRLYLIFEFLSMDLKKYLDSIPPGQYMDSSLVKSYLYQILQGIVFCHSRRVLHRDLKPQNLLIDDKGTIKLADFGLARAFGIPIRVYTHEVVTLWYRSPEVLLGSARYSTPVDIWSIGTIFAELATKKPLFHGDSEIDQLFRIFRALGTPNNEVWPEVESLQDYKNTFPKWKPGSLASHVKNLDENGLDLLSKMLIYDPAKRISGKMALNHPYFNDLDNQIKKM
# CDK4, sequence (P11802 whole entry): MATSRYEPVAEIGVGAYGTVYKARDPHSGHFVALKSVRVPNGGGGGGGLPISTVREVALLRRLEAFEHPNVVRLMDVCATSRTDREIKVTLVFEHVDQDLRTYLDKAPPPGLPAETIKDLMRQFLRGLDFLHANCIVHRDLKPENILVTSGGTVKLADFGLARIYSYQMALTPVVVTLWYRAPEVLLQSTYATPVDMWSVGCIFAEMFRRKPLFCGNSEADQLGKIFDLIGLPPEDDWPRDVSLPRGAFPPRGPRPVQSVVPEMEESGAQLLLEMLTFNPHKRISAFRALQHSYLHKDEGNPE
smiles,measurement,setting,value
"C[C@]1(O)CCCN(c2nc(Nc3ccc(S(=O)(=O)N[C@@H]4CCN(CC5CCN(c6ccc(C7CCC(=O)NC7=O)cc6F)CC5)C[C@@H]4F)cc3F)ncc2C(F)(F)F)C1 (stereo partly drawn) [Compound 37, N-[(3S,4R)-1-[[1-[4-(2,6-Dioxo-3-piperidyl)-2-fluoro-phenyl]-4-piperidyl]methyl]-3-fluoro-4-piperidyl]-3-fluoro-4-[[4-[(3S)-3-hydroxy-3-methyl-1-piperidyl]-5-(trifluoromethyl)pyrimidin-2-yl]amino]benzenesulfonamide]","fraction unbound at 30 min, 1 µM",Plasma protein binding,0.0198
same,significantly downregulated proteins,human PBMC cells,CDK2 as the only significantly downregulated protein
same,AUC0–24h/D,[1]; PO 10 mg/kg BID × 3 days,624 mg·h/mL
same,AUC0–24h/D,[1]; PO 25 mg/kg BID × 3 days,709 mg·h/mL
same,AUC0–24h free,[1]; PO 25 mg/kg BID × 3 days,14.2 ng·h/mL
same,AUC0–24h/D,[1]; PO 50 mg/kg BID × 3 days,949 mg·h/mL
same,AUC0–24h free,[1]; PO 50 mg/kg BID × 3 days,19.0 ng·h/mL
same,AUC0–24h/D,[1]; PO 50 mg/kg QD × 3 days,1377 mg·h/mL
same,AUC0–24h free,[1]; PO 50 mg/kg QD × 3 days,27.5 ng·h/mL
same,DC50,"CDK9; read-out: TOV21G CDK9 DC50, 24 h",> 10000 nM
same,degradation selectivity over CDK9,CDK9; vs CDK2 degradation,> 500 fold
same,antitumor activity,HCC1569 tumor xenograft; 25 mg/kg PO BID,stable disease (30 to −30% is stable disease (0% = Tumor Stasis))
same,day 28 %dTV (mean ± SEM),HCC1569 tumor xenograft; 25 mg/kg PO BID,–26 ± 9%
same,antitumor activity,HCC1569 tumor xenograft; 50 mg/kg PO BID,stable disease (30 to −30% is stable disease (0% = Tumor Stasis))
same,day 28 %dTV (mean ± SEM),HCC1569 tumor xenograft; 50 mg/kg PO BID,–24 ± 10%
same,antitumor activity,HCC1569 tumor xenograft; 50 mg/kg PO QD,stable disease (30 to −30% is stable disease (0% = Tumor Stasis))
same,degradation selectivity over CDK1,CDK1,> 100 fold
same,DC50,CDK6,1280 nM
same,DC50,CDK4,> 10000 nM
same,dog F,"Dog PK; IV 0.1 / PO 1 mg/kg, 1 mg/kg",12%
same,Vd,"Dog PK; plasma, iv, 0.1 mg/kg",4.2 L/kg
same,clearance,"Dog PK; plasma, iv, 0.1 mg/kg",3.9 mL/min/kg
same,half-life,"Dog PK; plasma, iv, 0.1 mg/kg",14.4 h
same,AUC(0-t),"Dog PK; plasma, po, 1 mg/kg",0.557 µM·h
same,Cmax,"Dog PK; plasma, po, 1 mg/kg",26 nM
same,monkey F,"Monkey PK; IV 0.07 / PO 1 mg/kg, 1 mg/kg",12%
same,Vd,"Monkey PK; plasma, iv, 0.07 mg/kg",5.7 L/kg
same,clearance,"Monkey PK; plasma, iv, 0.07 mg/kg",9.1 mL/min/kg
same,half-life,"Monkey PK; plasma, iv, 0.07 mg/kg",8.6 h
same,AUC(0-t),"Monkey PK; plasma, po, 1 mg/kg",0.25 µM·h
same,Cmax,"Monkey PK; plasma, po, 1 mg/kg",14 nM
same,AUC(0-t),Rat PK,3.63 µM·h
same,Cmax,Rat PK,261 nM
same,IC50,pRB S807/811; read-out: MKN1 pRB IC50,23 nM
same,IC90,pRB S807/811; read-out: MKN1 pRB IC90,110 nM
same,inhibition of pRB in tumor,pRB,90% and > 90%
